Source: paper PMC7915682, “Pursuing Orally Bioavailable Hepcidin Analogues via Cyclic N-Methylated Mini-Hepcidins” (Biomedicines, 2021)
Read-outs that look alike come from different tables or passages of the source. Where a SMILES comes first, the peptide text is derived from it. Where no end group is shown, it is not given here.

Columns and labels:
[1] = target: T1, GFP-tagged ferroportin (FPN) (Homo sapiens, UniProt Q9NP59); experiment: FPN-GFP degradation (internalisation) assay by flow cytometry in HEK293:T-REx-FPN-GFP cells; format: cell-based; settings: 24 h treatment; for EC50: FPN degradation dose-response, HEK293:T-REx-FPN-GFP cells; for FPN Degradation % ± SEM: peptide 10 μM, normalised with respect to hepcidin (1 μM), n = 3
T1 construct: expressed in transfected cells
T1 sequence (Q9NP59 1-571): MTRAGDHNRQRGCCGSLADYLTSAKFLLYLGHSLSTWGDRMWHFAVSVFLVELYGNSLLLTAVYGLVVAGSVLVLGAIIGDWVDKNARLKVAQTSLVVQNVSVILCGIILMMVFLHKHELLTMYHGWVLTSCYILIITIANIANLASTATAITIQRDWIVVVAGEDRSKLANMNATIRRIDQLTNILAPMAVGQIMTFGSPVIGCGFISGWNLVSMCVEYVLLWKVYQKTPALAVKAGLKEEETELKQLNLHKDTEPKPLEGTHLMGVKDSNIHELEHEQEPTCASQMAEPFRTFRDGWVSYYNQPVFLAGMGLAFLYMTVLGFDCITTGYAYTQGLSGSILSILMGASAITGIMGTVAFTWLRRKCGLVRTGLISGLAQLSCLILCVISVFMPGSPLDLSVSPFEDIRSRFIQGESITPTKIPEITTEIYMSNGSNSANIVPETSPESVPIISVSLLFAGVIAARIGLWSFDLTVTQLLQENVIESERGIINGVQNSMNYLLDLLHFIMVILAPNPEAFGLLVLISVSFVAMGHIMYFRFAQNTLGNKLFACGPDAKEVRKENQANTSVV
Experimental: HEK293:T-REx^TM-FPN-GFP cells, described previously, were cultured in T75 flasks containing FPN-GFP media (Dulbecco’s Modified Eagle’s Medium (DMEM) containing high glucose, GlutaMAX^TM supplement, hydroxyethyl piperazineethanesulfonic acid (HEPES), 10% tetracycline screened foetal bovine serum (FBS), 1% penicillin/streptomycin, and 100 μg/mL of hygromycin) and maintained at 37 °C in a humidified atmosphere of 5% CO2.
HEK293:T-REx^TM-FPN-GFP cells were plated in FPN-GFP media in the presence of 20 µM FAC (ferric ammonium citrate = ammonium iron (III) citrate) and induced on the following day with 50 ng/mL of doxycycline hydrochloride. After 24 h, doxycycline hydrochloride was washed off with PBS (phosphate buffered saline) and the cells were treated with peptides for another 24 h. Cells were then trypsinised, centrifuged (5 min at 1000 rpm), and resuspended in PBS at approximately 1 × 10^4 cell/µL. The intensity of green fluorescence was measured by flow cytometry performed on a Becton Dickinson LSR Fortessa-X-20. Cells not induced with doxycycline hydrochloride were used to establish a gate to exclude background fluorescence, and cells induced to express FPN-GFP but not treated with any peptides were used as the positive control. Each peptide treatment was repeated independently at least three times except for the initial screening of the mono N-methylated analogues (Figure 2), which was only performed once. The results were expressed as the % of the reduction in fluorescence with respect to hepcidin-treated cells according to the following formula: % FPN Degradation = (1 − (average FHepc − Fχ)/(average FHepc − average Funtreated)) × 100, where F corresponds to the GFP gate median, and χ to the peptide analysed.
Peptide bioactivity was measured using HEK293:T-REx^TM-FPN-GFP cells stably expressing a GFP-tagged ferroportin (FPN) construct that was treated overnight with different concentrations of hepcidin or analogues. FPN-GFP expression and FPN-GFP internalisation and degradation in response to hepcidin treatment were confirmed by confocal microscopy, and the % of GFP fluorescence was then analysed by flow cytometry and expressed as a % FPN degradation. […] This promising result led us to design a second series of analogues that included multiple N-methylated residues with and without backbone cyclisation.

[2] = Serum stability assay (25% human male serum, 37 °C, LC-MS); format: in vitro ADME
Experimental: Human male serum was centrifuged at 20,000 g for 10 min and the clear part of the supernatant was then diluted to 25% (v/v) with Milli-Q® water and incubated at 37 °C for 15 min. Each peptide sample was dissolved in triplicate at a final concentration of 20 μM in pre-incubated 25% serum, or Milli-Q® water as a control. […] Supernatant was then removed and transferred into vials for liquid chromatography mass spectrometry (LC-MS) analysis (50 μL injection and multiple reaction monitoring (MRM) protocol, Table S2). The effect of these strategies on the stability of mini-hepcidin analogues was investigated by incubating selected derivatives in human male serum at 37 °C and collecting samples at various time points. The results were then quantitated by liquid chromatography-mass spectrometry (LC-MS). We were unable to determine the serum stability of all analogues as the recovery from serum and detection of the peptides was very low. Modification of sample preparation protocols, optimisation of LC/MS conditions, and reducing serum concentration to 25% were unable to improve yield/detection. We would predict that this poor recovery is due to high binding of peptides to serum proteins, which is consistent with native hepcidin, which binds to α-2-macroglobulin [35, 36]. […] Effect of macrocyclisation and N-methylation on the stability of selected mini- hepcidin derivatives. A) Illustration of sites most susceptible to enzymatic attack in mini- hepcidin derivatives. B) Serum stability analysis of selected […]. Human male serum was centrifuged at 20,000 g for 10 minutes and the clear part of the supernatant was then diluted to 25% (v/v) with Milli-Q® water and incubated at 37 °C for 15 minutes. Each peptide sample was dissolved in triplicate at a final concentration of 20 μM in pre-incubated 25% serum, or Milli-Q® water as a control. Aliquots of 100 μL were removed at different time points and quenched with 100 μL of 15% trichloroacetic acid (TCA), followed by […] Supernatant was then removed and transferred into vials for liquid chromatography mass spectrometry (LC- MS) analysis (50 μL injection and multiple reaction monitoring (MRM) protocol). Error bars […] Comparison between Hep9, 2, […]9, 9. (also on this page, place not known: […] Hep9 2 […]] 7 Proteolytic attack Reduced proteolytic attack Blocked proteolytic attack 0 50 100 150 200 0 50 100 Time /min % Peptide Remaining 2 9 A B 7) (1 picture or pasted object on this page, not shown here)

Caco-2 = Caco-2 in vitro model (preliminary); format: in vitro ADME; settings: preliminary results, data not shown
Excerpt: It has been proposed that by enhancing the lipophilicity of peptides, the intestinal permeability could be improved by facilitating transcellular absorption (passive diffusion). Thus, our rationale was to improve the permeability of Hep9 2, by increasing its lipophilicity via both cyclisation and multiple N-methylations. […] Cyclisation and N-methylation appear to facilitate the crossing of the artificial lipid membrane for cHep9[Ser^1, MeThr^2, MeIle^8] 13, but this enhancement was not statistically significant relative to atenolol, a marker for poor transcellular permeability, or Hep9 2, (Figure 5). […] Preliminary results from a Caco-2 in vitro model were consistent with the PAMPA data (data not shown).

Row | EC50 [1] | Compound | further results
1 | 40700 nM | CC[C@H](C)[C@H](NC(=O)[C@H](CS)NC(=O)[C@H]([C@@H](C)CC)N(C)C(=O)[C@@H]1CCCN1C(=O)[C@H](Cc1ccccc1)NC(=O)[C@H](Cc1c[nH]cn1)NC(=O)[C@H]([C@@H](C)O)N(C)C(=O)[C@@H](N)CO)C(=O)N[C@@H](Cc1ccccc1)C(=O)O [Peptide 5, S[N-Me T]HFP[N-Me I]CIF] (HELM PEPTIDE1{S.[meT].H.F.P.[meI].C.I.F}$$$$V2.0; N-terminus assumed) | 
2 | 2170 nM | CC[C@H](C)[C@H](NC(=O)[C@@H]1CCCN1C(=O)[C@H](Cc1ccccc1)NC(=O)[C@H](Cc1c[nH]cn1)NC(=O)[C@H]([C@@H](C)O)N(C)C(=O)[C@@H](N)CO)C(=O)N[C@@H](CS)C(=O)N(C)[C@H](C(=O)N[C@@H](Cc1ccccc1)C(=O)O)[C@@H](C)CC [Peptide 6, S[N-Me T]HFPIC[N-Me I]F] (HELM PEPTIDE1{S.[meT].H.F.P.I.C.[meI].F}$$$$V2.0; N-terminus assumed) | half-life at 20 μM ([2]; 25% (v/v) human male serum, 20 μM peptide in 25% human male serum, 37 °C, read-out: peptide half-life in serum): ~12 min; stability relative to Hep9 ([2]; 25% human male serum, 37 °C, ratio of half-lives): approximately four
3 | 1890 nM | CC[C@H](C)[C@@H](C(=O)N[C@@H](Cc1ccccc1)C(=O)O)N(C)C(=O)[C@H](CS)NC(=O)[C@H]([C@@H](C)CC)N(C)C(=O)[C@@H]1CCCN1C(=O)[C@H](Cc1ccccc1)NC(=O)[C@H](Cc1c[nH]cn1)NC(=O)[C@H]([C@@H](C)O)N(C)C(=O)[C@@H](N)CO [Peptide 7, S[N-Me T]HFP[N-Me I]C[N-Me I]F] (HELM PEPTIDE1{S.[meT].H.F.P.[meI].C.[meI].F}$$$$V2.0; N-terminus assumed) | 
4 | 266 nM | CC[C@H](C)[C@@H]1NC(=O)[C@H](CS)NC(=O)[C@H]([C@@H](C)CC)NC(=O)[C@@H]2CCCN2C(=O)[C@H](Cc2ccccc2)NC(=O)[C@H](Cc2c[nH]cn2)NC(=O)[C@H]([C@@H](C)O)NC(=O)[C@H](CO)NC(=O)[C@H](Cc2ccccc2)NC1=O [Peptide 9] (HELM PEPTIDE1{C.I.F.S.T.H.F.P.I}$PEPTIDE1,PEPTIDE1,1:R1-9:R2$$$V2.0) | 
5 | 326 nM | STHFPICIF-OH [Peptide 3] | 
6 | 158 nM | CC[C@H](C)[C@@H]1NC(=O)[C@H](CS)NC(=O)[C@H]([C@@H](C)CC)NC(=O)[C@@H]2CCCN2C(=O)[C@H](Cc2ccccc2)NC(=O)[C@H](Cc2c[nH]cn2)NC(=O)[C@H]([C@@H](C)O)NC(=O)[C@H](CC(=O)O)NC(=O)CNC(=O)CNC(=O)CNC(=O)CNC(=O)[C@H](Cc2ccccc2)NC1=O [Peptide 10] (HELM PEPTIDE1{C.I.F.G.G.G.G.D.T.H.F.P.I}$PEPTIDE1,PEPTIDE1,1:R1-13:R2$$$V2.0) | 
7 |  | DTHFP[N-Me I]C[N-Me I]F [Peptide 4] | FPN Degradation % ± SEM [1]: Not active
8 |  | CC[C@H](C)[C@@H]1NC(=O)[C@H](CS)NC(=O)[C@H]([C@@H](C)CC)NC(=O)[C@@H]2CCCN2C(=O)[C@H](Cc2ccccc2)NC(=O)[C@H](Cc2c[nH]cn2)NC(=O)[C@H]([C@@H](C)O)NC(=O)[C@H](CC(=O)O)NC(=O)[C@H](Cc2ccccc2)NC1=O [Peptide 8] | half-life at 20 μM ([2]; serum (25% v/v), 20 μM peptide in 25% human male serum, 37 °C, read-out: peptide half-life in serum): ~8 min
9 |  | c(DTH[N-Me F]PICI[N-Me F]) [Peptide 11] | FPN Degradation % ± SEM [1]: 63 ± 1.6%

Row | Compound | EC50 [1] | further results
10 | CC[C@H](C)[C@@H]1NC(=O)[C@@H](NC(=O)[C@@H](NC(=O)[C@@H]2CCCN2C(=O)[C@H](Cc2ccccc2)NC(=O)[C@H](Cc2c[nH]cn2)NC(=O)[C@@H](NC(=O)[C@@H](N)CC(=O)O)[C@@H](C)O)[C@@H](C)CC)CSSC[C@@H](C(=O)N[C@@H](CCCCN)C(=O)N[C@H](C(=O)O)[C@@H](C)O)NC(=O)[C@@H]2CSSC[C@@H]3NC(=O)[C@@H]4CSSC[C@H](NC(=O)[C@H](Cc5ccccc5)NC1=O)C(=O)N[C@@H](CSSC[C@H](NC(=O)[C@H](CCCCN)NC(=O)[C@H](CO)NC(=O)[C@H](CCCNC(=N)N)NC(=O)[C@H](Cc1c[nH]cn1)NC3=O)C(=O)NCC(=O)N[C@@H](CCSC)C(=O)N2)C(=O)NCC(=O)N4 [Peptide 1, reference compound] | 9.38 nM | FPN Degradation % ± SEM [1]: 100 ± 2.6%
11 | CC[C@H](C)[C@H](NC(=O)[C@H](CS)NC(=O)[C@@H](NC(=O)[C@@H]1CCCN1C(=O)[C@H](Cc1ccccc1)NC(=O)[C@H](Cc1c[nH]cn1)NC(=O)[C@@H](NC(=O)[C@@H](N)CC(=O)O)[C@@H](C)O)[C@@H](C)CC)C(=O)N[C@@H](Cc1ccccc1)C(=O)O [Peptide 2, reference compound] | 2110 nM | half-life at 20 μM ([2]; male, human, serum): ~3 min
12 | CC[C@H](C)[C@H]1C(=O)N[C@@H](Cc2ccccc2)C(=O)N[C@@H](CC(=O)O)C(=O)N[C@@H]([C@@H](C)O)C(=O)N[C@@H](Cc2c[nH]cn2)C(=O)N[C@@H](Cc2ccccc2)C(=O)N2CCC[C@H]2C(=O)N(C)[C@@H]([C@@H](C)CC)C(=O)N[C@@H](CS)C(=O)N1C [Peptide 12, c(DTHFP[N-Me I]C[N-Me I]F)] | 2900 nM | 
13 | CC[C@H](C)[C@@H]1NC(=O)[C@@H]2CCCN2C(=O)[C@H](Cc2ccccc2)NC(=O)[C@H](Cc2c[nH]cn2)NC(=O)[C@H]([C@@H](C)O)N(C)C(=O)[C@H](CO)NC(=O)[C@H](Cc2ccccc2)NC(=O)[C@H]([C@@H](C)CC)N(C)C(=O)[C@H](CS)NC1=O [Peptide 13, c(S[N-Me T]HFPIC[N-Me I]F)] (HELM PEPTIDE1{S.[meT].H.F.P.I.C.[meI].F}$PEPTIDE1,PEPTIDE1,1:R1-9:R2$$$V2.0) | 140 nM | Caco-2 permeability (Caco-2): paralleled these observations
